Laboratory results published in patent publication EP0915086A1, “PHENYLSULFONAMIDE DERIVATIVES” (ONO PHARMACEUTICAL CO., LTD., priority 1996, dated 1997).
pIC50: −log10 of the molar value. Structures can show the parent of a compound that is named as a salt.

How the values were obtained:
gelatinase A = molecular target: T1, gelatinase A (Homo sapiens, UniProt P08253); test: Inhibitory activity against gelatinase A; format: biochemical; conditions: progelatinase A from human normal skin dermal fibroblasts (HNDF), activated with APMA; substrate MOCAc-Pro-Leu-Gly-A2pr(Dnp)-Ala-Arg-NH2; 37 °C, 20 minutes; fluorescence Ex 328 nm, Em 393 nm
T1 construct: endogenous in cells; host or cells: human normal skin dermal fibroblasts (HNDF)
T1 sequence (P08253 110-660): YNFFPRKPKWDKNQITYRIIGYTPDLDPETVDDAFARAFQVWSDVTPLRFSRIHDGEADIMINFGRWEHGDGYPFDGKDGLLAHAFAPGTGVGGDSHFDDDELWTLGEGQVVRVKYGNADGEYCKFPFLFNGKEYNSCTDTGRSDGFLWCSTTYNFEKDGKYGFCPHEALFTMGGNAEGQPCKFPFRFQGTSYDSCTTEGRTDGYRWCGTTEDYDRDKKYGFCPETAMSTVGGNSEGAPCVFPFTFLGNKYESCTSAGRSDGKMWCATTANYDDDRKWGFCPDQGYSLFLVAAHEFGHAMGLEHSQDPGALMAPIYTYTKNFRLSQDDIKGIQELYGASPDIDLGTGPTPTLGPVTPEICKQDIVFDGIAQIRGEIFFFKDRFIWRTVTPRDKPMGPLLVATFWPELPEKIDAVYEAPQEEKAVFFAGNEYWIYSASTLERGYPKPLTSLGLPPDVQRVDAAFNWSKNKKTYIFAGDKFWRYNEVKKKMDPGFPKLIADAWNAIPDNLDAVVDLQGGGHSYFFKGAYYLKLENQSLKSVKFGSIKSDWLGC
Protocol: Progelatinase A (7 µl; in assay buffer (90 µl)) was purified from human normal skin dermal fibroblasts (HNDF). It was activated by addition of 10 mM p-aminophenyl mercuric acetate (APMA) (10 µl) and preincubation at 37 °C for 1 hour. The solution (890 µl; the final concentration was […]) of the synthetic substrates (MOCAc-Pro-Leu-Gly-A2pr(Dnp)-Ala-Arg-NH2) was mixed with various concentrations of the test compound or a solution without it (10 µl) and the mixture was preincubated at 37 °C for 5 minutes. The activated gelaninase A prepared above (7 µl/tube, 100 µl) was added to the reaction mixture and further incubated at 37 °C for 20 minutes. The enzyme reaction was terminated by addition of 0.1 M sodium acetate buffer (2ml; pH 4.0).
The IC50 value was determined by measuring the fluorescent intensity (Ex = 328 nm, and Em = 393 nm) in this solution.

collagenase = molecular target: T2, collagenase (Homo sapiens, UniProt P03956); test: Inhibitory activity against collagenase; format: biochemical; conditions: procollagenase from human normal dermal fibroblasts (HNDF), activated with trypsin; substrate Ac-Pro-Leu-Gly-[2-mercapto-4-methyl-pentanoyl]-Leu-Gly-OEt; 26 °C, 10 minutes; absorption at 324 nm
T2 construct: endogenous in cells; host or cells: human normal dermal fibroblasts (HNDF)
T2 sequence (P03956 100-469): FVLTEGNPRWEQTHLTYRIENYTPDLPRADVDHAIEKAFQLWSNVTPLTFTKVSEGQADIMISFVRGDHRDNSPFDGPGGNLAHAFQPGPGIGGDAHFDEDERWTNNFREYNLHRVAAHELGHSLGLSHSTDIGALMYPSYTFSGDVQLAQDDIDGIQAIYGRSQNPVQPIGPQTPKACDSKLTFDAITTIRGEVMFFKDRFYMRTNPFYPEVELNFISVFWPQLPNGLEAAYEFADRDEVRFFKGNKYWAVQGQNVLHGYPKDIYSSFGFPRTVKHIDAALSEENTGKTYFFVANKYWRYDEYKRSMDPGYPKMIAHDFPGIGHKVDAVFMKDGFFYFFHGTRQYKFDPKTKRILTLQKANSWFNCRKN
Protocol: Trypsin (45 µl; 1 mg/ml) was added to a solution of procollagenase (5 µM) purified from human normal dermal fibloblasts (HNDF) in assay buffer (105 µl). The solution was preincubated in order to activate the enzyme at 37°C for 1 minute.
Trypsin was inactivated by addition of soybean trypsin inhibitor (SBTI; 50 µl). Solutions (20 µl) of synthetic substrate (Ac-Pro-Leu-Gly-[2-mercapto-4-methyl-pentanoyl]-Leu-Gly-OEt) (105 µl; the final concentration […]) with or without various concentrations of the test compound were preincubated for 5 minutes at 26 °C.
To the solutions, activated enzyme (75 µl/tube, 50 µl) prepared above was added. The mixtures were incubated at 26 °C for 10 minutes.
Absorption at 324 nm was measured at 40 points during the 10 minutes.
Vmax value was determined as measured value in 30 points therein.

| SMILES | pIC50 (gelatinase A) | pIC50 (collagenase) |
| --- | --- | --- |
| Cc1ccc(C=Cc2ccc(S(=O)(=O)N[C@H](C)C(=O)O)cc2)cc1 (stereo in doubt) [Example 3(1), N-[4-[2-(4-Methylphenyl)ethenyl]phenylsulfonyl]-D-alanine] | 8.21 |  |
| Cc1ccc(C#Cc2ccc(S(=O)(=O)N[C@H](C)C(=O)O)cc2)cc1 [Example 2(1), N-[4-[2-(4-Methylphenyl)ethynyl]phenylsulfonyl]-D-alanine] | 7.89 |  |
| O=C(O)[C@@H](Cc1c[nH]c2ccccc12)NS(=O)(=O)c1ccc(C#Cc2ccc(-n3ccnc3)cc2)cc1 [Example 2(18), N-[4-[2-(4-Imidazolylphenyl)ethynyl]phenylsulfonyl]-D-tryptophan] | 7.96 |  |
| CN(CCc1ccccc1)C(=O)CC[C@@H](NS(=O)(=O)c1ccc(C#Cc2ccc(-n3ccnc3)cc2)cc1)C(=O)O [Example 2(27), N-[4-[2-(4-Imidazolylphenyl)ethynyl]phenylsulfonyl]-N'-methyl-N'-(2-phenylethyl)-D-glutamine] | 8.48 |  |
| CCCC#Cc1ccc(S(=O)(=O)N[C@H](C)C(=O)NO)cc1 [Example 6(1), N-Hydroxy-[N-[4-(1-pentynyl)phenylsulfonyl]-D-alanyl]amide] | 8.92 |  |
| Cc1ccc(/C=C/c2ccc(S(=O)(=O)N[C@H](C)C(=O)NO)cc2)cc1 [Example 6(2), N-Hydroxy-[N-[4-[2-(4-methylphenyl)ethenyl]phenylsulfonyl]-D-alanyl]amide] | 9.70 |  |
| Cc1ccc(C#Cc2ccc(S(=O)(=O)N[C@H](C)C(=O)NO)cc2)cc1 [Example 6(4), N-Hydroxy-[N-[4-[2-(4-methylphenyl)ethynyl]phenylsulfonyl]-D-alanyl]amide] | 9.15 |  |
| C#Cc1ccc(S(=O)(=O)N[C@H](CCC(=O)NCCc2ccccc2)C(=O)NO)cc1 [Example 6(17), N-Hydroxy-[N-(4-ethynyl)phenylsulfonyl-N'-(2-phenylethyl)-D-glutaminyl]amide] | 9.10 | 7.20 |
| CC#Cc1ccc(S(=O)(=O)N(C)[C@H](C)C(=O)NO)cc1 [Example 10(13), N-Hydroxy-[N-methyl-N-[4-(1-propynyl)phenylsulfonyl]-D-alanyl]amide] |  | 6.54 |

More lines, now with the values ahead:

| pIC50 (gelatinase A) | pIC50 (collagenase) | SMILES |
| --- | --- | --- |
| 8.19 |  | Cc1ccc(C#Cc2ccc(S(=O)(=O)N[C@H](Cc3c[nH]c4ccccc34)C(=O)O)cc2)cc1 [Example 2(4), N-[4-[2-(4-Methylphenyl)ethynyl]phenylsulfonyl]-D-tryptophan] |
| 8.62 |  | CCCCCC#Cc1ccc(S(=O)(=O)N[C@H](C)C(=O)NO)cc1 [Example 6(11), N-Hydroxy-[N-[4-[4-(1-heptynyl)]phenylsulfonyl]-D-alanyl]amide] |
|  | 7.19 | C#Cc1ccc(S(=O)(=O)N[C@H](CCC(=O)NC(Cc2ccccc2)c2ccccc2)C(=O)NO)cc1 (stereo partly drawn) [Example 6(19), N-Hydroxy-[N-(4-ethynyl)phenylsulfonyl-N'-(1,2-diphenylethyl)-D-glutaminyl]amide] |
| 9.40 |  | C[C@H](C(=O)NO)N(C)S(=O)(=O)c1ccc(C#Cc2ccc(-n3ccnc3)cc2)cc1 [Example 10(3), N-Hydroxy-[N-methyl-N-[4-[2-[4-(1-imidazolyl)phenyl]ethynyl]phenylsulfonyl]-D-alanyl]amide hydrochloride] |
| 9.15 |  | CCCC#Cc1ccc(S(=O)(=O)N(C)[C@H](C)C(=O)NO)cc1 [Example 10(4)] |
| 8.12 |  | Cc1ccc(C#Cc2ccc(S(=O)(=O)N(C)[C@H](C)C(=O)NO)cc2)cc1 [Example 10, N-Hydroxy-[N-methyl-N-[4-[2-(4-methylphenyl)ethynyl]phenylsulfonyl]-D-alanyl]amide] |
